Assay results from patent US8247211B2, “Glycopeptide antibiotics” (American Cyanamid Company, priority 2001, dated 2012).
Values after ≈ are worked out from the molar mass of the structure shown.

How the values were obtained:
Experiment in all cases: In vitro antibacterial evaluation: minimum inhibitory concentration (MIC), broth dilution method
Type in all cases: cell-based
Escherichia coli = system: Escherichia coli
Procedure: (§1) The minimum inhibitory concentration (MIC), the lowest concentration of the antibiotic which inhibits growth of the test organism, is determined by the broth dilution method using Muller-Hinton II […] (Baltimore Biological Laboratories) following the recommendations of the National Committee for Clinical Laboratory Standards [Methods for dilution antimicrobial susceptibility tests for bacteria that grow aerobically, approved standard M7-A2, National Committee for Clinical Laboratory Standards, Villanova, Pa].
(§2) An inoculum level of 5×10^5 CFU/mL, and a range of antibiotic concentrations (64-0.06 μg/mL) is used. […] The test organisms include a spectrum of Gram-positive bacteria comprised of Staphylococcus sp., Streptococcus sp. and Enterococcus sp. These organisms include recent clinical isolates that are resistant to methicillin, penicillin and/or vancomycin.

Streptococcus sp. = system: Streptococcus sp.
Procedure: as §1, §2

Enterococcus sp. = system: Enterococcus sp.
Procedure: as §1, §2

Staphylococcus sp. = details: broth dilution, 18 hours at 35° C.
Procedure: as §1, §2

MIC Escherichia coli (ATCC 25922) (Escherichia coli; strain ATCC 25922): >64 µg/mL | MIC Escherichia coli (GC 4559) (Escherichia coli; strain GC 4559): >64 µg/mL | MIC Escherichi coli (GC 4560) (Escherichia coli; strain GC 4560): 8 µg/mL (≈ 5.49 µM) | MIC Streptococcus pneumoniae (ATCC 6301) (Streptococcus sp.; strain ATCC 6301): 2 µg/mL (≈ 1.37 µM) | MIC Streptococcus pneumoniae (GC 1894) (Streptococcus sp.; strain GC 1894): 0.5 µg/mL (≈ 0.343 µM) | MIC Streptococcus pyogenes (GC 4563) (Streptococcus sp.; strain GC 4563): 4 µg/mL (≈ 2.74 µM) | MIC Streptococcus agalactiae (GC 4564) (Streptococcus sp.; strain GC 4564): 8 µg/mL (≈ 5.49 µM) | MIC Streptococcus pneumoniae (GC 4565) (Streptococcus sp.; strain GC 4565): 2 µg/mL (≈ 1.37 µM) | MIC Enterococcus faecalis (ATCC 29212) (Enterococcus sp.; strain ATCC 29212): 32 µg/mL (≈ 22 µM) | MIC Enterococcus faecalis (GC 2242) (Enterococcus sp.; strain GC 2242): 32 µg/mL (≈ 22 µM) | MIC Enterococcus faecium (GC 2243) (Enterococcus sp.; strain GC 2243): 32 µg/mL (≈ 22 µM) | MIC Enterococcus faecalis (GC 2691) (Enterococcus sp.; strain GC 2691): 32 µg/mL (≈ 22 µM) | MIC Enterococcus faecalis (GC 3059) (Enterococcus sp.; strain GC 3059): 32 µg/mL (≈ 22 µM) | MIC Enterococcus faecalis (GC 4552) (Enterococcus sp.; strain GC 4552): 32 µg/mL (≈ 22 µM) | MIC Enterococcus faecalis (GC 4553) (Enterococcus sp.; strain GC 4553): 64 µg/mL (≈ 43.9 µM) | MIC Enterococcus faecalis (GC 4554) (Enterococcus sp.; strain GC 4554): 32 µg/mL (≈ 22 µM) | MIC Enterococcus faecium (GC 4556) (Enterococcus sp.; strain GC 4556): 32 µg/mL (≈ 22 µM) | MIC Enterococcus faecium (GC 4557) (Enterococcus sp.; strain GC 4557): 16 µg/mL (≈ 11 µM) | MIC Enterococcus avium (GC 4558) (Enterococcus sp.; strain GC 4558): 32 µg/mL (≈ 22 µM) | MIC Enterococcus faecalis (GC 6189) (Enterococcus sp.; strain GC 6189): 32 µg/mL (≈ 22 µM) | MIC Coagulase Negative Staphylococcus (GC 4547) (Staphylococcus sp.; 5×10^5 CFU/mL): 8 µg/mL (≈ 5.49 µM) | MIC Coagulase Negative Staphylococcus (GC 4548) (Staphylococcus sp.; 5×10^5 CFU/mL): 8 µg/mL (≈ 5.49 µM) | MIC Coagulase Negative Staphylococcus (GC 4549) (Staphylococcus sp.; 5×10^5 CFU/mL): 8 µg/mL (≈ 5.49 µM) | MIC Coagulase Negative Staphylococcus (GC 4551) (Staphylococcus sp.; 5×10^5 CFU/mL): 16 µg/mL (≈ 11 µM) | MIC Coagulase Negative Staphylococcus (GC 6257) (Staphylococcus sp.; 5×10^5 CFU/mL): 8 µg/mL (≈ 5.49 µM) | MIC Staphylococcus aureus (ATCC 29213) (Staphylococcus sp.; 5×10^5 CFU/mL): 16 µg/mL (≈ 11 µM) | MIC Staphylococcus aureus (GC 1131) (Staphylococcus sp.; 5×10^5 CFU/mL): 16 µg/mL (≈ 11 µM) | MIC Staphylococcus aureus (GC 3051) (Staphylococcus sp.; 5×10^5 CFU/mL): 16 µg/mL (≈ 11 µM) | MIC Staphylococcus aureus (GC 3053) (Staphylococcus sp.; 5×10^5 CFU/mL): 32 µg/mL (≈ 22 µM) | MIC Staphylococcus aureus (GC 4541) (Staphylococcus sp.; 5×10^5 CFU/mL): 16 µg/mL (≈ 11 µM) | MIC Staphylococcus aureus (GC 4542) (Staphylococcus sp.; 5×10^5 CFU/mL): 16 µg/mL (≈ 11 µM) | MIC Staphylococcus aureus (GC 4544) (Staphylococcus sp.; 5×10^5 CFU/mL): 16 µg/mL (≈ 11 µM) | MIC Staphylococcus aureus (GC 4545) (Staphylococcus sp.; 5×10^5 CFU/mL): 8 µg/mL (≈ 5.49 µM) | MIC Staphylococcus aureus-SMITH (GC 4543) (Staphylococcus sp.; 5×10^5 CFU/mL): 8 µg/mL (≈ 5.49 µM) | MIC Staphylococcus aureus (ATCC 29213) (Staphylococcus sp.; strain ATCC 29213): 16 µg/mL (≈ 11 µM) | MIC Staphylococcus aureus (GC 1131) (Staphylococcus sp.; strain GC 1131): 16 µg/mL (≈ 11 µM) | MIC Staphylococcus aureus (GC 3051) (Staphylococcus sp.; strain GC 3051): 16 µg/mL (≈ 11 µM) | MIC Staphylococcus aureus (GC 3053) (Staphylococcus sp.; strain GC 3053): 32 µg/mL (≈ 22 µM) | MIC Staphylococcus aureus (GC 4541) (Staphylococcus sp.; strain GC 4541): 16 µg/mL (≈ 11 µM) | MIC Staphylococcus aureus (GC 4542) (Staphylococcus sp.; strain GC 4542): 16 µg/mL (≈ 11 µM) | MIC Staphylococcus aureus-SMITH (GC 4543) (Staphylococcus sp.; strain GC 4543): 8 µg/mL (≈ 5.49 µM) | MIC Staphylococcus aureus (GC 4544) (Staphylococcus sp.; strain GC 4544): 16 µg/mL (≈ 11 µM) | MIC Staphylococcus aureus (GC 4545) (Staphylococcus sp.; strain GC 4545): 8 µg/mL (≈ 5.49 µM) | MIC Coagulase Negative Staphylococcus (GC 4547) (Staphylococcus sp.; strain GC 4547): 8 µg/mL (≈ 5.49 µM) | MIC Coagulase Negative Staphylococcus (GC 4548) (Staphylococcus sp.; strain GC 4548): 8 µg/mL (≈ 5.49 µM) | MIC Coagulase Negative Staphylococcus (GC 4549) (Staphylococcus sp.; strain GC 4549): 8 µg/mL (≈ 5.49 µM) | MIC Coagulase Negative Staphylococcus (GC 4551) (Staphylococcus sp.; strain GC 4551): 16 µg/mL (≈ 11 µM) | MIC Coagulase Negative Staphylococcus (GC 6257) (Staphylococcus sp.; strain GC 6257): 8 µg/mL (≈ 5.49 µM)
Structure (SMILES): CCOc1cc(C2OCC3OC(OC4C(CO)OC(Oc5ccc(CC6NC(=O)C(C(C)c7ccccc7)NC(=O)CNC(=O)C(CO)NC(=O)C(C(O)C7CNC(=N)N7C7OC(CO)C(O)C(O)C7O)NC(=O)C(C(O)C7CNC(=N)N7)NC6=O)cc5)C(O)C4O)C(O)C(O)C3O2)ccc1OC (stereo not drawn) [Example 152, Cyclo[glycyl-β-methylphenylalanyl-O-[4-O-[4,6-O-(3-ethoxy-4-methoxybenzylidene)hexopyranosyl)hexopyranosyl]tyrosyl-3-(2-iminoimidazolidin-4-yl)seryl-3-(3-hexopyranosyl-2-iminoimidazolidin-4-yl)serylseryl]]
MIC Staphylococcus haemolyticus (GC 4546) (Staphylococcus sp.; 5×10^5 CFU/mL): 8 µg/mL (≈ 5.49 µM) | MIC Staphylococcus haemolyticus (GC 4546) (Staphylococcus sp.; strain GC 4546): 8 µg/mL (≈ 5.49 µM)
